This passage reports melting point results from US6696487B2, “Fungicidal phenyl(thio)urea and phenyl(thio)carbamate derivatives” (Bayer Cropscience S.A., priority 2000, dated 2004).

For orientation: melting point means the temperature, or range, at which the solid turns liquid. `CCN(C)C(=S)Nc1cc(C)c(Oc2cccc(C(C)(C)C)c2)cc1C` [Compound 27, N′-(4-{[3-(1,1-dimethylethyl)phenyl]oxy}-2,5-dimethylphenyl)-N-ethyl-N-methylthiourea] came in with a melting point of 125 °C.
